Test results published in ChEMBL document CHEMBL1145819 (J Med Chem, 2003).
Several values for one entry are separate records, joined by “and”; a condition that tells them apart may be missing. Equal values may be shown once.

What was measured:
[1] = target: T1, 5-hydroxytryptamine receptor 7 (Homo sapiens, UniProt P34969); assay: Binding affinity towards human 5-hydroxytryptamine 7 receptor
[2] = target: T2, 5-hydroxytryptamine receptor 5A (Homo sapiens, UniProt P47898); assay: Binding affinity towards human 5-hydroxytryptamine 5A receptor
[3] = target: T2, 5-hydroxytryptamine receptor 5A; assay: Binding affinity towards human 5-hydroxytryptamine 5A receptor was evaluated using [3H]-5-CT as radioligand
[4] = target: T3, 5-hydroxytryptamine receptor 6 (Homo sapiens, UniProt P50406); assay: Binding affinity towards human 5-hydroxytryptamine 6 receptor was evaluated using [3H]-LSD as radioligand
[5] = target: T3, 5-hydroxytryptamine receptor 6
[6] = target: T3, 5-hydroxytryptamine receptor 6; assay: Antagonistic activity towards 5-hydroxytryptamine 6 receptor was evaluated in cAMP assay; assay type: functional
[7] = target: T4, 5-hydroxytryptamine receptor 5A (Mus musculus, UniProt P30966); assay: Binding affinity towards murine 5-hydroxytryptamine 5A receptor
[8] = target: T4, 5-hydroxytryptamine receptor 5A; assay: Binding affinity towards mouse 5-hydroxytryptamine 5A receptor was evaluated using [3H]LSD as radioligand
[9] = Antagonistic activity of compound in 5-HT induced cAMP accumulation; assay type: functional
[10] = Antagonistic activity of compound in cAMP accumulation was evaluated; assay type: functional
[11] = target: Serotonin 2 (5-HT2) receptor (Homo sapiens, UniProt P41595+P28223+P28335); assay: Binding affinity towards 5-HT2 receptor; assay type: protein assay
[12] = target: 5-hydroxytryptamine receptor 7 (Rattus norvegicus, UniProt P32305); assay: Binding affinity towards rat 5-hydroxytryptamine 7 receptor
[13] = target: T1, 5-hydroxytryptamine receptor 7
[14] = target: T4, 5-hydroxytryptamine receptor 5A; assay: Binding affinity towards mouse 5-hydroxytryptamine 5A receptor
[15] = target: T1, 5-hydroxytryptamine receptor 7; remark: listed apart in the source

T2 sequence (P47898 whole entry): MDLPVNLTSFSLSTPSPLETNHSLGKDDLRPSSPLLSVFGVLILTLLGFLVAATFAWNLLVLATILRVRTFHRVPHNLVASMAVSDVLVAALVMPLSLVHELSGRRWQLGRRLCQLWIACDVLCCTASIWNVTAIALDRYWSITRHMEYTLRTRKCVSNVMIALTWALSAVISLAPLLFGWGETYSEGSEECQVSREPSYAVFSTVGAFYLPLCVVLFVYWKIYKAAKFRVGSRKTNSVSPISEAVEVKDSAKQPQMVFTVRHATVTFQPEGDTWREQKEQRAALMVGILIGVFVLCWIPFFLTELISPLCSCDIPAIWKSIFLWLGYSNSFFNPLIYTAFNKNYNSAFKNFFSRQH
T4 sequence (P30966 whole entry): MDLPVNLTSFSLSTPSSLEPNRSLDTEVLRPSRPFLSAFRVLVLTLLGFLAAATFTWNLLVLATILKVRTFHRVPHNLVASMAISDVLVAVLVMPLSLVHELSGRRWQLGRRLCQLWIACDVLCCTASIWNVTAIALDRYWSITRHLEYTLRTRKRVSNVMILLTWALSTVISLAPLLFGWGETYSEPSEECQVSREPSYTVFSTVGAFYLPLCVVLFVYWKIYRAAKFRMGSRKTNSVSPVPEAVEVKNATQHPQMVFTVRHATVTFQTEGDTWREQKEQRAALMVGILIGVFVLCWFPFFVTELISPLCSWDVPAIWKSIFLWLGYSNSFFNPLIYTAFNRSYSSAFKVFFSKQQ
T1 sequence (P34969 whole entry): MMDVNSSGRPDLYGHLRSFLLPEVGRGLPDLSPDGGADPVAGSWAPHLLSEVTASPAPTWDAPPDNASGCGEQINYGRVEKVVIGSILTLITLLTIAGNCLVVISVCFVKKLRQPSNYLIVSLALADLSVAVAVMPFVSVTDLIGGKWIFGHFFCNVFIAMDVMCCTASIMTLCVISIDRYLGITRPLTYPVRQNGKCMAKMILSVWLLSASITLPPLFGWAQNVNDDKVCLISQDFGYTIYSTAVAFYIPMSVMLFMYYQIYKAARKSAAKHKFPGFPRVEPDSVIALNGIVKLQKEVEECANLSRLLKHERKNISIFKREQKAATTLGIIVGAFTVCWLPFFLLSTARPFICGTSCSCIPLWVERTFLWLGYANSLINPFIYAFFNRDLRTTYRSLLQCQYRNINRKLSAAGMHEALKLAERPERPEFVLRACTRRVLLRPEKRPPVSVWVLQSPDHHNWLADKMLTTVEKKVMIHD
T3 sequence (P50406 whole entry): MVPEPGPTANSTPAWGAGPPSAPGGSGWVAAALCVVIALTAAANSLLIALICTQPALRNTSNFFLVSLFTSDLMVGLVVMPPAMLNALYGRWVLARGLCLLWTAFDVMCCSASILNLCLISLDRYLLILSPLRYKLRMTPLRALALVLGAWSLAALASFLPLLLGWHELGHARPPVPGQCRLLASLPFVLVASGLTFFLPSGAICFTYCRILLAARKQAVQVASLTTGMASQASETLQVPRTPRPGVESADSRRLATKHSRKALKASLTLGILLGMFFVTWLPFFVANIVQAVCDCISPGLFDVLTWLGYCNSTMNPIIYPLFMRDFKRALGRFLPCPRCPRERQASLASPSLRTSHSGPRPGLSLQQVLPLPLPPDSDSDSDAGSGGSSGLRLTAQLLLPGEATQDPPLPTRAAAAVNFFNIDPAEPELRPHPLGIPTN
Chain of 5-hydroxytryptamine receptor 7 (Rattus norvegicus, UniProt P32305) (P32305 whole entry): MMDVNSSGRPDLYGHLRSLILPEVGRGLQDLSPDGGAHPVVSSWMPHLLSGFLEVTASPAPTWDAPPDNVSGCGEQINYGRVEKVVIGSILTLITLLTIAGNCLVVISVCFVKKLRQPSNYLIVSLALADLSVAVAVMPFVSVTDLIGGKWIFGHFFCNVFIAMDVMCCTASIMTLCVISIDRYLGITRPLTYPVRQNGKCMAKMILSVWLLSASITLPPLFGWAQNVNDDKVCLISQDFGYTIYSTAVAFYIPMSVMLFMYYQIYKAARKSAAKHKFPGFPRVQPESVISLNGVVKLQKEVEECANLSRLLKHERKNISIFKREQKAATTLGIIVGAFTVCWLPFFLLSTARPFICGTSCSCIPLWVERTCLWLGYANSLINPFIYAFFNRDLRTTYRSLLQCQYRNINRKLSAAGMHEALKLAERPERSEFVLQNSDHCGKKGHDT

SMILES: CO[C@@]1(C)c2cccc3c2-c2c1ccc1c2[C@@H](C3)N(C)CC1
- Ki [1]: 0.0011 µM

SMILES: COc1cc(N)c(Cl)cc1C(=O)NC1CN2CCC1CC2 (stereo not drawn) [ZACOPRIDE]
- Ki [2]: 16 µM

SMILES: NCCc1c[nH]c2ccc(C(N)=O)cc12
- Ki [3]: 0.02 µM
- Ki [4]: 0.72 µM
- Ki [2]: 0.02 µM

SMILES: CNc1cc(NC)cc(NS(=O)(=O)c2ccc(N)cc2)c1
- Ki [5]: 0.2 µM

SMILES: Cc1cn(S(=O)(=O)c2ccc(N)cc2)c2ccccc12
- IC50 [6]: 0.3 µM
- Kb ([6]; read-out: pA2 (converted)): 0.1 µM
- Ki [5]: 0.012 µM

SMILES: c1ccc2nc(N3CCNCC3)ccc2c1 [QUIPAZINE]
- Ki [7]: > 10 µM
- Ki [8]: > 10 µM

SMILES: CCc1c(C)[nH]c2c1C(=O)C(CN1CCOCC1)CC2 (stereo not drawn) [MOLINDONE]
- Ki [1]: 0.265 µM

SMILES: CNc1cc(NS(=O)(=O)c2ccc(N)cc2)nc(NC)n1
- pA2 [9]: 6.75

SMILES: COc1ccc(NS(=O)(=O)c2ccc(Br)cc2)cc1N1CCN(C)CC1
- pKb [10]: 7.8

SMILES: CO[C@H]1c2cccc3c2c(cn3S(=O)(=O)c2ccc(C)cc2)C[C@@H]1N
- Ki [5]: 0.13 µM

SMILES: Nc1ccc(S(=O)(=O)Nc2cc(N)nc(Br)c2)cc1
- Ki [5]: 0.055 µM

SMILES: O=C1Nc2cccc3c2C1(CCCCN1CC=C(c2ccccc2)CC1)CCC3 (stereo not drawn)
- Ki [11]: 0.098 µM

SMILES: COc1cc(CC(C)N)c(OC)cc1I (stereo not drawn)
- Ki [2]: > 1 µM

SMILES: COc1ccc(NS(=O)(=O)c2sc3ccc(Cl)cc3c2C)cc1N1CCN2CCC[C@H]2C1
- pKb [10]: 7.7

SMILES: OCCN1CCN(CCCN2c3ccccc3Sc3ccc(Cl)cc32)CC1 [PERPHENAZINE]
- Ki [1]: 0.023 µM

SMILES: CN(C)Cc1cn(S(=O)(=O)c2ccccc2)c2ccccc12
- IC50 [6]: 0.8 µM
- Ki [5]: 0.0031 µM

SMILES: Cc1cccc(C#N)c1-c1cccc2c1-c1cccc3c1[C@@H](C2)N(C)CC3
- Ki [1]: 0.0208 µM and 0.00379 µM

SMILES: COc1ccc(NS(=O)(=O)c2sc3ccc(Cl)cc3c2C)cc1N1CCN(C)CC1
- pKb [10]: 8.5

SMILES: CN1C[C@@H](NS(=O)(=O)N(C)C)C[C@@H]2c3cccc4[nH]cc(c34)C[C@H]21 [DISULERGINE]
- Ki ([12]; read-out: Ki): 0.021 µM
- Ki [1]: 0.018 µM

SMILES: CC1CCN(CC[C@H]2CCCN2S(=O)(=O)c2cccc(O)c2)CC1
- pKb [13]: 8.3

SMILES: C[N+](C)(C)CCc1c[nH]c2ccc(O)cc12
- Ki [2]: > 10 µM

SMILES: CCCN(CCC)C1CCc2cccc(O)c2C1 (stereo not drawn) [8-OH-DPAT]
- Ki [12]: 0.15 µM
- Ki [4]: > 10 µM

SMILES: COc1ccc2c(c1)c1c(n2S(=O)(=O)c2ccccc2)CCCC1CN(C)C (stereo not drawn)
- Ki [5]: 0.0015 µM

SMILES: O=C(CCCN1CCC2(CC1)C(=O)NCN2c1ccccc1)c1ccc(F)cc1 [SPIPERONE]
- Ki [3]: 63 µM
- Ki [4]: 1.59 µM
- Ki [5]: 1.59 µM

SMILES: O=S(=O)(c1cccc2ccccc12)n1ccc2ccc(N3CCN4CCCC4C3)cc21 (stereo not drawn)
- Ki [5]: 0.0007 µM

SMILES: COc1ccc2c(c1)c(CCN(C)C)cn2Cc1ccccc1
- Ki [5]: 0.0065 µM

SMILES: O=C1Nc2cccc3c2C1(CCCN1CCN(c2ccccc2)CC1)CCC3 (stereo not drawn)
- Ki [11]: 0.016 µM

SMILES: c1ccc2c3c([nH]c2c1)CNCC3 [TRYPTOLINE]
- Ki [14]: 2.47 µM
- Ki [5]: > 5 µM

SMILES: CNS(=O)(=O)c1ccc2[nH]cc(CCN(C)C)c2c1
- Ki [3]: 5 µM
- Ki [15]: 0.95 µM
- Ki [4]: 2.6 µM
- Ki [2]: 5 µM

SMILES: CN(C)CC/C=C1/c2ccccc2Sc2ccc(Cl)cc21 [CHLORPROTHIXENE]
- Ki ([12]; read-out: Ki): 0.0056 µM
- Ki [5]: 0.003 µM

SMILES: CN1CCc2ccc3c4c2[C@H]1Cc1cccc(c1-4)[C@H]3N
- Ki [1]: 0.0134 µM

SMILES: COc1cccc2[nH]cc(CCN(C)C)c12
- Ki [5]: 0.154 µM

SMILES: CN(C)CCc1cn(S(=O)(=O)c2ccccc2)c2ccccc12
- Ki [5]: 0.0041 µM
